Source: patent publication US5326774A, “Pharmaceutical preparation of antihypertensive, antianginal, antiarrhythmic and antiglaucomic action” (priority 1992, dated 1994)
Several values for one entry are separate records, joined by “and”; a condition that tells them apart may be missing. Equal values may be shown once. Read-outs that look alike come from different tables or passages of the source.

What was measured:
[1] = target: T1, β1-adrenoceptor (Rattus norvegicus, UniProt P18090); assay: Inhibition of isadrin's positive chronotropic effect, i.v., anesthetized rats; type: in vivo; conditions: rat, iv, read-out: Dosage inhibiting isadrin's positive chronotropism by 50% (ED50)
T1 construct: positive chronotropic and depressor effects in the anesthetized rats; from tissue; host or cells: whole living rat (heart rate response to isadrin); endogenous receptor
T1 sequence (P18090 whole entry): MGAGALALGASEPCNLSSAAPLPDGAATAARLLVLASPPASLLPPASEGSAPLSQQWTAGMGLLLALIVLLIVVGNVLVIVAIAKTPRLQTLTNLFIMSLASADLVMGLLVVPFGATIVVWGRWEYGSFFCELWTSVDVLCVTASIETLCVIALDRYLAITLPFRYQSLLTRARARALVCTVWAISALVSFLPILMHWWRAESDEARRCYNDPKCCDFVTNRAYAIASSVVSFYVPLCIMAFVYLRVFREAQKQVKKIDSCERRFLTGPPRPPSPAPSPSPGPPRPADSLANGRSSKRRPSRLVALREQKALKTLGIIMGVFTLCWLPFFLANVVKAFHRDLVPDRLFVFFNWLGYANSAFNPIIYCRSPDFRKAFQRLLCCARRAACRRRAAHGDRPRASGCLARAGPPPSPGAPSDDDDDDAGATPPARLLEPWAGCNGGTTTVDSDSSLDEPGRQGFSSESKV

[2] = target: T2, β2-adrenoceptor (Rattus norvegicus, UniProt P10608); assay: Inhibition of isadrin's depressor effect, i.v., anesthetized rats; type: in vivo; conditions: rat, iv, read-out: Dosage inhibiting isadrin's depressor effect by 50%, ED50
T2 construct: positive chronotropic and depressor effects in the anesthetized rats; from tissue; host or cells: whole living rat (blood pressure response to isadrin); endogenous receptor
T2 sequence (P10608 whole entry): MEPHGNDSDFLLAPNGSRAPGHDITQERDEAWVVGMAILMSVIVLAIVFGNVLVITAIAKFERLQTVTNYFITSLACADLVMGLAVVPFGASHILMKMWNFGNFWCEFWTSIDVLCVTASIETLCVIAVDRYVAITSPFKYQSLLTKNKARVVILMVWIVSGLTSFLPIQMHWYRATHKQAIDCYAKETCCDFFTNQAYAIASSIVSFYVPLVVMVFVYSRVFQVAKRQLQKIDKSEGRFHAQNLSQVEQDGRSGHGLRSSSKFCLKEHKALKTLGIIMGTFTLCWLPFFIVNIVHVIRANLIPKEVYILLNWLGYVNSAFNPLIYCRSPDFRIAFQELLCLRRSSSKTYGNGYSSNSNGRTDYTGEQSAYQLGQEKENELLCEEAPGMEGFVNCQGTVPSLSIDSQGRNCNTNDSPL

[3] = test system: electrically induced ventricular fibrillation; assay: Threshold of electrically induced ventricular fibrillation in anesthetized cats; type: in vivo, cat
[4] = in vivo; conditions: mouse, iv
Excerpt: LD50 values were estimated by using the Litchfield-Wilckoxon method.

[5] = test system: arterial pressure; assay: Arterial pressure and heart rate in conscious normotensive rats, oral; type: in vivo, rat; conditions: 150 mg/kg
[6] = test system: arterial pressure; assay: Antihypertensive effect in rats with renovascular hypertension; type: in vivo, rat; conditions: same conditions
Method: . In rats suffering from renovascular hypertension the compound of the invention in the dosage of 10 mg/kg (injected intramuscularly) lowered with confidence the arterial pressure (from 137±3 to 117±5 mm of Hg column) 30 minutes after being administered. The 2-week course of the administration of the compound according to the invention (10 mg/kg 1 time a day) caused the antihypertensive effect to be enhanced. By the end of the second week the arterial pressure was 110±8.6 mm Hg. […]

[7] = test system: strophantin-induced arrhythmia; type: in vivo, guinea pig
[8] = test system: ventricular fibrillation; assay: Ventricular fibrillation during acute coronary occlusion and reperfusion in anesthetized dogs; type: in vivo, dog; conditions: for Ventricular fibrillation during acute occlusion and reperfusion: single animals
[9] = test system: coronary vessels; assay: Coronary vessel dilatation and myocardial perfusion in anesthetized rats; type: in vivo, rat; conditions: 0.1 mg/kg i.v. (compound of the invention)
Excerpt: The coronarodilative effect of the compound according to the invention is not associated with its β- and α-adrenoceptor blocking activity and its influence on the systemic perfusion pressure and pump function of the heart. […]

[10] = test system: intraocular tension of intact rabbit eyes; conditions: 1% solution
Method: The effects of the compound according to the invention on intraocular tension and hydrodynamics of the eye was tested in 28 chinchilla rabbits with body weight of 2.5-3.5 kg.
The left animal eyes were control wherein using the same procedure a diluent was instilled.

[11] = test system: mesaton-initiated pressor effect; assay: Mesaton-initiated pressor effect in anesthetized rats; type: in vivo, rat; conditions: for effect on mesaton pressor effect: 3 mg/kg i.v.; for suppression of mesaton pressor effect: 10 mg/kg i.v., average
[12] = test system: arterial pressure; assay: Hypotensive activity in anesthetized cats, i.v.; type: in vivo, cat
[13] = test system: vascular regions; assay: Labeled microsphere method: cardiac output distribution in normotensive rats; type: in vivo, rat
[14] = test system: vascular regions; assay: Labeled microsphere method in rats with renovascular hypertension; type: in vivo, rat
[15] = test system: intraocular tension; assay: Clinical test in 108 patients with glaucoma resistant to conventional therapy; conditions: human, in vivo
Method: The preparation of the invention was tested on 108 patients with different cases of glaucoma resistant to the conventional antiglaucomic therapy. […] A long-term resetting for more than 1 month of intraocular tension was attained in 76% of patients.

[16] = β-adrenoceptor blocking doses, normotensive rats

CC(C)NCC(O)COc1cccc2[nH]ccc12 (stereo not shown) [Pindolol, pindolol, reference compound]
ED50 [1]: 0.025 ± 0.002 mg/kg
ED50 [2]: 0.02 ± 0.002 mg/kg
threshold of electrically induced ventricular fibrillation ([3]; dosages tested): no effect
LD50 at 72 h [4]: 29 mg/kg

CC(C)NCC(O)COc1cccc2ccccc12 (stereo not shown) [Propranolol, propranolol]
arterial pressure [5]: small influence on arterial pressure
heart rate [5]: decreased the heart rate slightly
antihypertensive efficacy [6]: low efficacy
threshold of electrically induced ventricular fibrillation ([3]; 5 mg/kg): increased considerably this threshold
Arrhythmogenic dose of strophantin as compared with control: extrasystoles ([7]; guinea pig, in vivo): 92.7% and 110%
Dose of strophantin as compared with control: ventricular fibrillation ([7]; guinea pig, in vivo): 97.9% and 106.3% and 120%
prevention of ventricular fibrillation in temporary coronary occlusion ([8]; 1 mg/kg i.v.): the same effect
Ventricular fibrillation during acute occlusion and reperfusion ([8]; 10 min after injection): R
Ventricular fibrillation during acute occlusion and reperfusion ([8]; 60 min after injection): R
coronary vessel dilatation / myocardial perfusion [9]: unfavourable effect on transmural, myocardial perfusion
Average decrease of intraocular tension OD, M ± m ([10]; 2 hours): 2.6 ± 0.3 ram of Hg column
Average decrease of intraocular tension OD, M ± m ([10]; 4 hours): 2.2 ± 0.2 ram of Hg column

CC(CCc1ccccc1)NCC(O)c1ccc(O)c(C(N)=O)c1 (stereo not shown) [Labetalol, labetalol]
ED50 [1]: 0.7 ± 0.05 mg/kg
ED50 [2]: 3.3 ± 0.2 mg/kg
effect on mesaton pressor effect [11]: did not change
suppression of mesaton pressor effect [11]: 47%
ED20 ([12]; Felis catus, iv, anesthetized cats, read-out: Dose resulting in lowering of arterial pressure by 20%, ED20): 1 ± 0.09 mg/kg
minimal effective dose ([12]; Felis catus, iv, cats, read-out: dosage from which arterial pressure lowered): 0.1 mg/kg
hypotensive effect compared with compound of the invention ([12]; from 0.1 mg/kg): less pronounced and prolonged effect
threshold of electrically induced ventricular fibrillation ([3]; 1 mg/kg): did not change
threshold of electrically induced ventricular fibrillation ([3]; 5 mg/kg): increased considerably this threshold
value of increasing threshold compared with propranolol and oxprenolol ([3]; 5 mg/kg): higher
Arrhythmogenic dose of strophantin as compared with control: extrasystoles ([7]; 0.3 mg/kg i.v.): 101%
Dose of strophantin as compared with control: ventricular fibrillation ([7]; 0.3 mg/kg i.v.): 113%
Arrhythmogenic dose of strophantin as compared with control: extrasystoles ([7]; 1.0 mg/kg i.v.): 127%
Dose of strophantin as compared with control: ventricular fibrillation ([7]; 1.0 mg/kg i.v.): 131%
Lethal dose of strophantin as compared with control: animal death ([7]; 1.0 mg/kg i.v.): 128%
Arrhythmogenic dose of strophantin as compared with control: extrasystoles ([7]; 3.0 mg/kg i.v.): 136%
Dose of strophantin as compared with control: ventricular fibrillation ([7]; 3.0 mg/kg i.v.): 137%
Lethal dose of strophantin as compared with control: animal death ([7]; 3.0 mg/kg i.v.): 132%
coronary vessel dilatation / myocardial perfusion [9]: did not lead to the dilatation of coronary vessels
nature of vasodilating effect ([13]; dosages to block α-adrenoceptors): slight change of vasodilating nature
most sensible vessels [13, 16]: the vessels of skeletal muscles, testicles, spleen, kidneys and adrenals
vasodilating properties [13, 16]: exhibits vasodilating properties
vasodilating properties [14]: shows vasodilating properties

CC(C)(C)NC[C@H](O)COc1nsnc1N1CCOCC1 [thymolol]
mechanism of ocular hypotensive effect [15]: associated not only with inhibition of intraocular liquid secretion, but with improvement of its outflow

C=CCOc1ccccc1OCC(O)CNC(C)C (stereo not shown) [Oxprenolol, oxprenolol]
ED50 [1]: 0.26 ± 0.025 mg/kg
ED50 [2]: 0.055 ± 0.005 mg/kg
effect on mesaton pressor effect [11]: did not change
suppression of mesaton pressor effect [11]: 10%
threshold of electrically induced ventricular fibrillation ([3]; 1 mg/kg): did not change
threshold of electrically induced ventricular fibrillation ([3]; 5 mg/kg): increased considerably this threshold
Arrhythmogenic dose of strophantin as compared with control: extrasystoles ([7]; guinea pig, in vivo): 105% and 120% and 110%
Dose of strophantin as compared with control: ventricular fibrillation ([7]; guinea pig, in vivo): 101% and 110% and 121%
Lethal dose of strophantin as compared with control: animal death ([7]; guinea pig, in vivo): 102% and 112%
